Source: ChEMBL document CHEMBL4834458, “Diterpenoids with Aromatase Inhibitory Activity from the Rhizomes of Kaempferia elegans” (J Nat Prod, 2021)

Key:
[1] = target: T1, Aromatase (Homo sapiens, UniProt P11511); assay: Inhibition of aromatase (unknown origin) at 12.5 uM relative to control
T1 sequence (P11511 whole entry): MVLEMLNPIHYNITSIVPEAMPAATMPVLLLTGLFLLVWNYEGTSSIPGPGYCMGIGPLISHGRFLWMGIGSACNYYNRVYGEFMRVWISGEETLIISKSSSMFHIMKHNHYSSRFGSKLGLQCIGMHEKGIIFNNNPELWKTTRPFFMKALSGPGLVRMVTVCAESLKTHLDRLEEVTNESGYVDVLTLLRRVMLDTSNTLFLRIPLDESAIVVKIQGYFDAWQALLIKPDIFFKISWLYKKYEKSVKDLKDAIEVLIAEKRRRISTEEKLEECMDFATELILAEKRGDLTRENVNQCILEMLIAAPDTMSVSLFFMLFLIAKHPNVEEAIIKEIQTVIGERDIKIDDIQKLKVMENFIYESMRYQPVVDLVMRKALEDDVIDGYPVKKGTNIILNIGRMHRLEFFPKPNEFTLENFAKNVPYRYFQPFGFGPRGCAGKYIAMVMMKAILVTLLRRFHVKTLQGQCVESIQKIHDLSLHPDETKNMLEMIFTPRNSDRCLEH

[2] = tested on: T47D; assay: Cytotoxicity against human T47D cells assessed as reduction in cell viability incubated for 48 hrs by MTT assay; type: functional, cell-based
[3] = tested on: MRC5; assay: Cytotoxicity against human MRC5 cells assessed as reduction in cell viability incubated for 48 hrs by MTT assay; type: cell-based; settings: MRC5, 48 h
[4] = tested on: K562; assay: Cytotoxicity against human K562 cells assessed as reduction in cell viability incubated for 48 hrs by MTT assay; type: functional, cell-based; settings: K562, 48 h
[5] = tested on: A549; assay: Cytotoxicity against human A549 cells assessed as reduction in cell viability incubated for 48 hrs by MTT assay; type: functional, cell-based; settings: A549, 48 h
[6] = tested on: HepG2; assay: Cytotoxicity against human HepG2 cells assessed as reduction in cell viability incubated for 48 hrs by MTT assay; type: functional, cell-based; settings: HepG2, 48 h
[7] = Cytotoxicity against human NCI-H69AR cells assessed as reduction in cell viability incubated for 48 hrs by MTT assay; type: functional, cell-based
[8] = tested on: HuCCT-1; assay: Cytotoxicity against human HuCC-A1 cells assessed as reduction in cell viability incubated for 48 hrs by MTT assay; type: functional, cell-based; settings: HuCCT-1, 48 h
[9] = target: T1, Aromatase; assay: Inhibition of aromatase (unknown origin)
[10] = tested on: HeLa; assay: Cytotoxicity against human HeLa cells assessed as reduction in cell viability incubated for 48 hrs by MTT assay; type: functional, cell-based
[11] = tested on: MDA-MB-231; assay: Cytotoxicity against human MDA-MB-231 cells assessed as reduction in cell viability incubated for 48 hrs by MTT assay; type: functional, cell-based; settings: MDA-MB-231, 48 h

| Compound | inhibition at 12.5 µM [1] [%] | IC50 [9] [µM] | further results |
| --- | --- | --- | --- |
| CC(C)c1ccc2c(c1)CC[C@H]1C(C)(C)CCC[C@]21C | 44 |  |  |
| CC(C)C1=CC(=O)C2=C(CC[C@H]3C(C)(C)CCC[C@]23C)C1=O | 42 |  |  |
| C=C[C@]1(C)C=C2[C@H](O)C[C@H]3C(C)(C)CCC[C@]3(C)[C@H]2CC1 | 31 |  |  |
| CC(C)c1ccc2c(c1)[C@H](O)C[C@H]1C(C)(C)CCC[C@]21C | 30 |  |  |
| CC(C)c1cc(O)c2c(c1)CC[C@H]1C(C)(C)CCC[C@]21C |  | 3.7 | IC50 [2]: 129 µM; IC50 [3]: 82.1 µM; IC50 [4]: 27.2 µM; IC50 [5]: 27.2 µM; IC50 [6]: 27.2 µM; IC50 [7]: 27.2 µM; IC50 [8]: 27.2 µM; IC50 [10]: 27.2 µM; IC50 [11]: 27.2 µM |
| CC(C)[C@]1(O)C=C2[C@H](O)C[C@H]3C(C)(C)CCC[C@]3(C)[C@H]2C[C@H]1O | 21 |  |  |
| CC(C)[C@@]1(O)CC[C@H]2C(CC[C@H]3C(C)(C)CCC[C@]23C)[C@H]1O (stereo partly specified) | 16 |  |  |
| C[C@@H]1O[C@]2(C(C)(C)O)C=C3CC[C@H]4C(C)(C)CCC[C@]4(C)[C@@]31OO2 |  | 10.7 |  |
| CC(C)C1=CC2=CC[C@H]3C(C)(C)CCC[C@]3(C)[C@H]2[C@H](O)C1 | 36 |  |  |
| C=C[C@]1(C)C=C2CC[C@H]3C(C)(C)CCC[C@]3(C)[C@H]2CC1 |  | 10.4 |  |
| C[C@H]1C[C@]2(O)O[C@@]1(C)C=C1CC[C@H]3C(C)(C)CCC[C@]3(C)[C@H]12 |  | 11.8 |  |
| CC(C)[C@@]12CC3=C([C@@H](CO1)O2)[C@@]1(C)CCCC(C)(C)[C@@H]1CC3 | 26 |  |  |
| C[C@@H]1OC(=O)C=C2[C@H](O)C[C@H]3C(C)(C)CCC[C@]3(C)[C@H]21 | 14 |  |  |
| C[C@@H]1OC(=O)C=C2[C@H](O)C[C@H]3C(C)(C)CCC[C@]3(C)[C@]21O | 25 |  |  |
| C=C[C@@]1(C)CC(=O)C2=C(CC[C@H]3C(C)(C)CCC[C@]23C)C1 |  | 7.9 |  |
| CC(C)c1cc(O)c2c(c1)[C@H](O)C[C@H]1C(C)(C)CCC[C@]21C |  | 7.2 |  |
| CC(C)[C@@]1(O)CC[C@H]2C(CC[C@H]3C(C)(C)CCC[C@]23C)[C@@H]1O (stereo partly specified) | 15 |  |  |
